Experimental findings from patent publication US20250145665A1, “MACROCYCLIC PEPTIDES USEFUL AS MODULATORS OF TNF ALPHA” (Bristol-Myers Squibb Company, priority 2023, published 2025) are described below.

The IC50 is the concentration needed to halve the response being measured.

SMILES strings stand for the structures. Starred links: 1 amine or outer side, 2 acyl side, 3 side chain; linkers in the order of their positions; H or OH if unused. Positions of bridges follow the written chain, without caps; N, C: chain ends. Non-standard residues stand in square brackets, D forms with d. Residues, ends and D or L forms follow the SMILES beside them. *: point of attachment. Bip(4'-NHCO-C6H4-3-CH2COOH) = N[C@@H](Cc1ccc(-c2ccc(NC(=O)c3cccc(CC(=O)O)c3)cc2)cc1)C(=O)O; Bip(4'-NHCO-C6H4-4-CH2COOH) = N[C@@H](Cc1ccc(-c2ccc(NC(=O)c3ccc(CC(=O)O)cc3)cc2)cc1)C(=O)O; X5 = Cn1nc(C(=O)Nc2ccc(-c3ccc(C[C@H](N[*:1])C(=O)[*:2])cc3)cc2)c2ccccc21; dArg(Nω-CH2C6H4-3-CH2Gua) = N=C(N)NCc1cccc(CNC(=N)NCCC[C@@H](N)C(=O)O)c1; Bip(4'-NH) = O=C([C@H](Cc1ccc(-c2ccc(N[*:3])cc2)cc1)N[*:1])[*:2]; dArg(ω-(3-HO-benzyl)) = N=C(NCCC[C@@H](N)C(=O)O)NCc1cccc(O)c1; Indazole3carbonyl(1-CH2COOH) = O=C(O)Cn1nc(C(=O)*)c2ccccc21; X72 = N=C(N)Nc1ccc(CCNC(=N)NCCC[C@@H](N[*:1])C(=O)[*:2])cc1; Bip(4'-COOH) = N[C@@H](Cc1ccc(-c2ccc(C(=O)O)cc2)cc1)C(=O)O; Bip(4'-NHAc) = CC(=O)Nc1ccc(-c2ccc(C[C@H](N)C(=O)O)cc2)cc1; X44 = N#Cc1ccc(CNC(=N)NCCC[C@@H](N[*:1])C(=O)[*:2])cc1; X4 = N=C(NCCCc1cccc(N)c1)NCCC[C@@H](N[*:1])C(=O)[*:2]; Ala(imidazol-2-yl) = N[C@@H](Cc1ncc[nH]1)C(=O)O; dArg(ω-Bn) = N=C(NCCC[C@@H](N)C(=O)O)NCc1ccccc1; Ala(morpholin-4-yl) = N[C@@H](CN1CCOCC1)C(=O)O; Benzoyl(3-OCH2COOH) = O=C(O)COc1cccc(C(=O)*)c1; Phe(3-CONH2) = NC(=O)c1cccc(C[C@H](N)C(=O)O)c1; Bip = N[C@@H](Cc1ccc(-c2ccccc2)cc1)C(=O)O; Val(3-OH) = CC(C)(O)[C@H](N)C(=O)O; 2Pal = N[C@@H](Cc1ccccn1)C(=O)O; Tic = O=C(O)[C@@H]1Cc2ccccc2CN1; 2Thi = N[C@@H](Cc1cccs1)C(=O)O; Cha = N[C@@H](CC1CCCCC1)C(=O)O; Tle = CC(C)(C)[C@H](N)C(=O)O; Pip = O=C(O)[C@@H]1CCCCN1; Sar = CNCC(=O)O

TNFα, sequence (P01375 77-233 limits assumed): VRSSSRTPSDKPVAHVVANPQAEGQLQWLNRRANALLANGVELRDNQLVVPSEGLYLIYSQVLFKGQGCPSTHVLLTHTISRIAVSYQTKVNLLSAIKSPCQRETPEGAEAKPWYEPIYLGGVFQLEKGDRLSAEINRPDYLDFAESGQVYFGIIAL

The first assay addresses TNFα (Homo sapiens, UniProt P01375). In words: TNF-Induced HEK-Blue Assay. Format: cell-based.
Conditions: not given
In turn, `CC[C@H](C)[C@@H]1NC(=O)[C@@H](CCCNC(=N)NCc2cccc(O)c2)NC(=O)[C@H](CC(=O)O)NC(=O)[C@H](Cc2cnc[nH]2)NC(=O)CN(C)C(=O)[C@H](Cc2ccc(-c3ccc(NC(=O)c4nn(CC(=O)O)c5ccccc45)cc3)cc2)NC(=O)[C@H](Cc2ccc(-c3ccc(C(=O)O)cc3)cc2)NC(=O)[C@H](CC2CCCCC2)NC(=O)CSC[C@@H](C(=O)NCC(N)=O)NC(=O)[C@H](CC(C)C)NC(=O)[C@H](Cc2ncc[nH]2)NC(=O)[C@H](C(C)C)NC(=O)[C@@H]2Cc3ccccc3CN2C1=O` [Example 561] ({CH2CO}-[Cha][Bip(4'-COOH)][Bip(4'-NH)](Indazole3carbonyl(1-CH2COOH))[Sar]HD[dArg(ω-(3-HO-benzyl))]I[Tic]V[Ala(imidazol-2-yl)]LCG-NH2; thioether N-13) showed an IC50 of less than 50 nM. Take `CC(C)C[C@@H]1NC(=O)[C@H](CCCNC(=N)N)NC(=O)[C@H](C(C)C)NC(=O)[C@@H]2CCCN2C(=O)[C@H](C(C)C)NC(=O)[C@@H](CCCNC(=N)NCc2ccc(C#N)cc2)NC(=O)[C@H](CC(=O)O)NC(=O)[C@@H]2CCCN2C(=O)CN(C)C(=O)[C@H](Cc2ccc(-c3ccc(NC(=O)c4nn(CC(=O)O)c5ccccc45)cc3)cc2)NC(=O)[C@H](Cc2ccc(-c3ccccc3)cc2)NC(=O)[C@H](CN2CCOCC2)NC(=O)CSC[C@@H](C(=O)NCC(N)=O)NC1=O` [Example 506] ({CH2CO}-[Ala(morpholin-4-yl)][Bip][Bip(4'-NH)](Indazole3carbonyl(1-CH2COOH))[Sar]PD[X44]VPVRLCG-NH2; thioether N-13): the IC50 was less than 50 nM. Compound `CC(C)C[C@@H]1NC(=O)[C@H](Cc2cccs2)NC(=O)[C@H](C(C)C)NC(=O)[C@@H]2CCCN2C(=O)[C@H](C(C)C)NC(=O)[C@@H](CCCNC(=N)NCc2ccccc2)NC(=O)[C@H](CC(=O)O)NC(=O)[C@H](Cc2ccccn2)NC(=O)CN(C)C(=O)[C@H](Cc2ccc(-c3ccc(NC(=O)c4nn(CC(=O)O)c5ccccc45)cc3)cc2)NC(=O)[C@H](Cc2ccc(-c3ccccc3)cc2)NC(=O)[C@H](CN2CCOCC2)NC(=O)CSC[C@@H](C(=O)NCC(N)=O)NC1=O` [Example 638] ({CH2CO}-[Ala(morpholin-4-yl)][Bip][Bip(4'-NH)](Indazole3carbonyl(1-CH2COOH))[Sar][2Pal]D[dArg(ω-Bn)]VPV[2Thi]LCG-NH2; thioether N-13) registered an IC50 of less than 50 nM.

As for `CC(C)C[C@@H]1NC(=O)[C@H](CCCNC(=N)N)NC(=O)[C@H](C(C)C)NC(=O)[C@@H]2CCCN2C(=O)[C@H](C(C)C)NC(=O)[C@@H](CCCNC(=N)NCCc2ccc(NC(=N)N)cc2)NC(=O)[C@H](CC(=O)O)NC(=O)[C@@H]2CCCN2C(=O)CN(C)C(=O)[C@H](Cc2ccc(-c3ccc(NC(=O)c4nn(CC(=O)O)c5ccccc45)cc3)cc2)NC(=O)[C@H](Cc2ccc(-c3ccccc3)cc2)NC(=O)[C@H](CN2CCOCC2)NC(=O)CSC[C@@H](C(=O)NCC(N)=O)NC1=O` [Example 436] ({CH2CO}-[Ala(morpholin-4-yl)][Bip][Bip(4'-NH)](Indazole3carbonyl(1-CH2COOH))[Sar]PD[X72]VPVRLCG-NH2; thioether N-13), the IC50 is less than 50 nM.

The assay is the same for the next values; noted with them: HEK-Blue-CD40L cells, NF-kB-driven secreted alkaline phosphatase reporter; TNFα 0.5 ng/ml; 18 h; read-out: TNF induced HEK-Blue assay IC50 value.
For `CC(C)C[C@@H]1NC(=O)[C@H](Cc2ccc(O)cc2)NC(=O)[C@H](C(C)C)NC(=O)[C@@H]2CCCN2C(=O)[C@H](C(C)C)NC(=O)[C@@H](CCCNC(=N)N)NC(=O)[C@H](CC(=O)O)NC(=O)[C@H](Cc2ccc(O)cc2)NC(=O)CN(C)C(=O)[C@H](Cc2ccc(-c3ccccc3)cc2)NC(=O)[C@H](Cc2ccc(-c3ccccc3)cc2)NC(=O)[C@H](Cc2ccccc2)NC(=O)CSC[C@@H](C(=O)NCC(N)=O)NC1=O` [Example 62] ({CH2CO}-F[Bip][Bip][Sar]YD[dR]VPVYLCG-NH2; thioether N-13), the IC50 was 50 to 200 nM.

`CC[C@H](C)[C@@H]1NC(=O)[C@@H](CCCNC(=N)N)NC(=O)[C@H](CC(=O)O)NC(=O)[C@H](Cc2cnc[nH]2)NC(=O)CN(C)C(=O)[C@H](Cc2ccc(-c3ccc(NC(C)=O)cc3)cc2)NC(=O)[C@H](Cc2ccc(-c3ccc(C(=O)O)cc3)cc2)NC(=O)[C@H](CC2CCCCC2)NC(=O)CSC[C@@H](C(=O)NCC(N)=O)NC(=O)[C@H](CC(C)C)NC(=O)[C@H](Cc2ccc(OC)cc2)NC(=O)[C@H](C(C)C)NC(=O)[C@@H]2CCCN2C1=O` [Example 281] ({CH2CO}-[Cha][Bip(4'-COOH)][Bip(4'-NHAc)][Sar]HD[dR]IPVY(Me)LCG-NH2; thioether N-13): the concentration for half-maximal inhibition (IC50) was in the range of 50 to 200 nM.

For the compound `CC(=O)Nc1ccc(-c2ccc(C[C@@H]3NC(=O)[C@H](Cc4ccc(-c5ccccc5)cc4)NC(=O)[C@H](CN4CCOCC4)NC(=O)CSC[C@@H](C(=O)NCC(N)=O)NC(=O)[C@H](CC(C)C)NC(=O)[C@H](Cc4ccccn4)NC(=O)[C@H](C(C)C)NC(=O)[C@@H]4CCCN4C(=O)[C@H](C(C)C)NC(=O)[C@@H](CCCNC(=N)N)NC(=O)[C@H](CC(=O)O)NC(=O)[C@H](Cc4ccc(O)cc4)NC(=O)CN(C)C3=O)cc2)cc1` [Example 222] ({CH2CO}-[Ala(morpholin-4-yl)][Bip][Bip(4'-NHAc)][Sar]YD[dR]VPV[2Pal]LCG-NH2; thioether N-13), the IC50 was less than 50 nM.

On to `CC(C)C[C@@H]1NC(=O)[C@H](CCCNC(=N)N)NC(=O)[C@H](C(C)C)NC(=O)[C@@H]2CCCCN2C(=O)[C@H](C(C)C)NC(=O)[C@H](CCCNC(=N)N)NC(=O)[C@H](CC(=O)O)NC(=O)[C@@H]2CCCN2C(=O)CN(C)C(=O)[C@H](Cc2ccc(-c3ccccc3)cc2)NC(=O)[C@H](Cc2ccc(-c3ccccc3)cc2)NC(=O)[C@H](Cc2ccccc2)NC(=O)CSC[C@@H](C(=O)NCC(N)=O)NC1=O` [Example 41] ({CH2CO}-F[Bip][Bip][Sar]PDRV[Pip]VRLCG-NH2; thioether N-13), for which the concentration for half-maximal inhibition (IC50) fell in the range of 200 to 2000 nM.

As to `CC[C@H](C)[C@@H]1NC(=O)[C@@H](CCCNC(=N)N)NC(=O)[C@H](CC(=O)O)NC(=O)[C@H](Cc2cnc[nH]2)NC(=O)CN(C)C(=O)[C@H](Cc2ccc(-c3ccc(NC(=O)c4cccc(OCC(=O)O)c4)cc3)cc2)NC(=O)[C@H](Cc2ccc(-c3ccc(C(=O)O)cc3)cc2)NC(=O)[C@H](C(C)(C)C)NC(=O)CSC[C@@H](C(=O)NCC(N)=O)NC(=O)[C@H](CC(C)C)NC(=O)[C@H](Cc2cccc(C(N)=O)c2)NC(=O)[C@H](C(C)C)NC(=O)[C@@H]2CCCN2C1=O` [Example 591] ({CH2CO}-[Tle][Bip(4'-COOH)][Bip(4'-NH)](Benzoyl(3-OCH2COOH))[Sar]HD[dR]IPV[Phe(3-CONH2)]LCG-NH2; thioether N-13), the IC50 is less than 50 nM.

For the compound `CC(C)C[C@@H]1NC(=O)[C@H](Cc2ncc[nH]2)NC(=O)[C@H](C(C)C)NC(=O)[C@@H]2CCCN2C(=O)[C@H](C(C)C)NC(=O)[C@@H](CCCNC(=N)NCc2cccc(CNC(=N)N)c2)NC(=O)[C@H](CC(=O)O)NC(=O)[C@H](Cc2ccccn2)NC(=O)CN(C)C(=O)[C@H](Cc2ccc(-c3ccc(NC(=O)c4ccc(CC(=O)O)cc4)cc3)cc2)NC(=O)[C@H](Cc2ccc(-c3ccc(C(=O)O)cc3)cc2)NC(=O)[C@H](CC2CCCCC2)NC(=O)CSC[C@@H](C(=O)NCC(N)=O)NC1=O` [Example 559] ({CH2CO}-[Cha][Bip(4'-COOH)][Bip(4'-NHCO-C6H4-4-CH2COOH)][Sar][2Pal]D[dArg(Nω-CH2C6H4-3-CH2Gua)]VPV[Ala(imidazol-2-yl)]LCG-NH2; thioether N-13), the IC50 is less than 50 nM. As to `CC(=O)Nc1ccc(-c2ccc(C[C@@H]3NC(=O)[C@H](Cc4ccc(-c5ccccc5)cc4)NC(=O)[C@H](C(C)(C)O)NC(=O)CSC[C@@H](C(=O)NCC(N)=O)NC(=O)[C@H](CC(C)C)NC(=O)[C@H](Cc4cnc[nH]4)NC(=O)[C@H](C(C)C)NC(=O)[C@@H]4CCCN4C(=O)[C@H](C(C)C)NC(=O)[C@@H](CCCNC(=N)N)NC(=O)[C@H](CC(=O)O)NC(=O)[C@H](Cc4ccccn4)NC(=O)CN(C)C3=O)cc2)cc1` [Example 518] ({CH2CO}-[Val(3-OH)][Bip][Bip(4'-NHAc)][Sar][2Pal]D[dR]VPVHLCG-NH2; thioether N-13), the IC50 lay within 50 to 200 nM. Regarding `CC(C)C[C@@H]1NC(=O)[C@H](CCCCN)NC(=O)[C@H](C(C)C)NC(=O)[C@@H]2CCCN2C(=O)[C@H](C(C)C)NC(=O)[C@H](CCCNC(=N)N)NC(=O)[C@H](CC(=O)O)NC(=O)[C@@H]2CCCN2C(=O)CN(C)C(=O)[C@H](Cc2ccc(-c3ccccc3)cc2)NC(=O)[C@H](Cc2ccc(-c3ccccc3)cc2)NC(=O)[C@H](Cc2ccccc2)NC(=O)CSC[C@@H](C(=O)NCC(N)=O)NC1=O` [Example 3] ({CH2CO}-F[Bip][Bip][Sar]PDRVPVKLCG-NH2; thioether N-13), the IC50 lay within 200 to 2000 nM. Consider `CC[C@H](C)[C@@H]1NC(=O)[C@@H](CCCNC(=N)N)NC(=O)[C@H](CC(=O)O)NC(=O)[C@H](Cc2cnc[nH]2)NC(=O)CN(C)C(=O)[C@H](Cc2ccc(-c3ccc(NC(=O)c4cccc(CC(=O)O)c4)cc3)cc2)NC(=O)[C@H](Cc2ccc(-c3ccccc3)cc2)NC(=O)[C@H](CC2CCCCC2)NC(=O)CSC[C@@H](C(=O)NCC(N)=O)NC(=O)[C@H](CC(C)C)NC(=O)[C@H](Cc2cnc[nH]2)NC(=O)[C@H](C(C)C)NC(=O)[C@@H]2CCCN2C1=O` [Example 444] ({CH2CO}-[Cha][Bip][Bip(4'-NHCO-C6H4-3-CH2COOH)][Sar]HD[dR]IPVHLCG-NH2; thioether N-13), for which the IC50 was less than 50 nM. For the compound `CC(C)C[C@@H]1NC(=O)[C@H](CCCNC(=N)N)NC(=O)[C@H](C(C)C)NC(=O)[C@@H]2CCCN2C(=O)[C@H](C(C)C)NC(=O)[C@@H](CCCNC(=N)NCCCc2cccc(N)c2)NC(=O)[C@H](CC(=O)O)NC(=O)[C@@H]2CCCN2C(=O)CN(C)C(=O)[C@H](Cc2ccc(-c3ccc(NC(=O)c4nn(C)c5ccccc45)cc3)cc2)NC(=O)[C@H](Cc2ccc(-c3ccccc3)cc2)NC(=O)[C@H](CN2CCOCC2)NC(=O)CSC[C@@H](C(=O)NCC(N)=O)NC1=O` [Example 394] ({CH2CO}-[Ala(morpholin-4-yl)][Bip][X5][Sar]PD[X4]VPVRLCG-NH2; thioether N-13), the IC50 was 50 to 200 nM.
